Test systems include HCC 2998; 786-0; EKVX; A549; SF-268; SR; HCT-116; HCT-15; RPMI-8226; NCI-H23; COLO 205; ACHN; SW-620; LOX IMVI; NCI-H460; SF-295; SK-OV-3.
Holding throughout (assay): NCI anticancer screen, dose series, 48 h

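How tested: cells in 96-well plates exposed to compound for 48 hours at five concentrations. GI50 marks 50% less growth.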 Active and inactive are the calls of the source. Rule as the data show it: active = GI50 up to about 1.1 µM and inactive = higher. Where only a bound is given, the exact number is not on record here.

With `NC(=O)c1ccccc1NC(=O)C(=O)C(C(=O)c1ccc(Cl)c(Cl)c1)C1OC(=O)c2ccccc21` (stereo not drawn), the GI50 in the test on HCC 2998 is 49.8 µM (inactive); with 786-0, 48.8 µM (inactive); in the test on EKVX it was > 100 µM (inactive); with A549 it was 43.1 µM (inactive); in the test on SF-268 it was 34.4 µM (inactive); with SR, 95.9 µM (inactive). Further, the GI50 in the test on HCT-116 was 18.7 µM (inactive); in the test with HCT-15 it was 46.5 µM; with RPMI-8226 it was 69.2 µM (inactive); with NCI-H23, 39.5 µM (inactive); in the test on COLO 205 it was 41.8 µM (inactive); in the test with ACHN, 59.3 µM (inactive). Also, the GI50 with SW-620 was 46.5 µM (inactive).

Take `CCN(CC)C(=S)SCC(=O)Nc1nc2c(s1)CCCC2`: the GI50 was 57 µM (inactive) with LOX IMVI; > 100 µM (inactive) with HCC 2998; 60.8 µM (inactive) in the test with 786-0; > 100 µM (inactive) in the test with A549; > 100 µM (inactive) with SF-268; 27.6 µM (inactive) with SR. Moreover, the GI50 was 68.9 µM (inactive) in the test with NCI-H460; 64.3 µM (inactive) with HCT-116; 85.5 µM (inactive) with SF-295; > 100 µM (inactive) with SK-OV-3; 24.6 µM with HCT-15; > 100 µM (inactive) in the test on RPMI-8226. For the same compound, the GI50 in the test with NCI-H23 was 74.1 µM (inactive); with COLO 205, 95.1 µM (inactive); with ACHN, > 100 µM (inactive); with SW-620, > 100 µM (inactive).

Take `CC(=O)N1CC(=O)NC1=S`: the GI50 with LOX IMVI, with 786-0, in the test on EKVX, in the test with A549, in the test on SF-268 and with SR was > 100 µM (inactive) throughout. The GI50 with HCT-116 is > 100 µM (inactive); in the test with SF-295 it was > 100 µM (inactive); with SK-OV-3, > 100 µM (inactive); in the test with HCT-15, above 100 µM; in the test with RPMI-8226, > 100 µM (inactive); in the test on NCI-H23 it was > 100 µM (inactive). For the same compound, the GI50 in the test with COLO 205, with ACHN and in the test with SW-620 was > 100 µM (inactive) throughout.

Regarding `O=C(Cn1ccnc1[N+](=O)[O-])c1ccccc1`, the GI50 with LOX IMVI, in the test with HCC 2998, with 786-0, in the test with EKVX, with A549 and in the test with SF-268 was > 100 µM (inactive) each time. The GI50 was > 100 µM (inactive) in the test on NCI-H460; > 100 µM (inactive) in the test with SF-295; > 100 µM (inactive) with SK-OV-3; above 100 µM in the test with HCT-15; > 100 µM (inactive) in the test with RPMI-8226; > 100 µM (inactive) in the test with NCI-H23. The GI50 in the test on COLO 205, with ACHN and with SW-620 was > 100 µM (inactive) each time.

On to `O=C(O)C1=NN=C(C(=O)O)NN1`, for which the GI50 in the test with LOX IMVI is > 100 µM (inactive); in the test on 786-0, > 100 µM (inactive); in the test on EKVX it was > 100 µM (inactive); in the test on A549, > 100 µM (inactive); in the test with SF-268, > 100 µM (inactive); in the test on NCI-H460 it was 79.4 µM (inactive). For the same compound, the GI50 is > 100 µM (inactive) with HCT-116; > 100 µM (inactive) with SF-295; 37.9 µM (inactive) in the test on SK-OV-3; above 100 µM in the test on HCT-15; 43.9 µM (inactive) in the test with RPMI-8226; > 100 µM (inactive) in the test with NCI-H23. Besides, the GI50 with COLO 205 was > 100 µM (inactive); with ACHN it was > 100 µM (inactive); in the test on SW-620, 38.6 µM (inactive).

On to `CCOC(=O)/C(C#N)=C(O)/C(=C\c1ccc(Br)cc1)NC(=O)c1ccccc1`, for which the GI50 in the test with HCC 2998, in the test with 786-0, in the test with EKVX, with A549, in the test with SF-268 and in the test on NCI-H460 was > 100 µM (inactive) throughout. In addition, the GI50 in the test with HCT-116 was 16.4 µM (inactive); in the test on SF-295, > 100 µM (inactive); with SK-OV-3 it was > 100 µM (inactive); in the test with HCT-15, 37.4 µM; in the test with RPMI-8226, 22.4 µM (inactive); in the test with NCI-H23, > 100 µM (inactive). Also, the values for the GI50 in the test on COLO 205, with ACHN and in the test on SW-620 were > 100 µM (inactive), > 100 µM (inactive) and 19.2 µM (inactive), respectively.

For the compound `COc1cccc(N2C(=O)c3c(c4[nH]c5ccccc5c4c4ccc(C(C)(C)C)cc34)C2=O)c1`, the GI50 in the test with LOX IMVI, in the test on HCC 2998, in the test with 786-0, in the test with EKVX, in the test on A549 and with SF-268 was > 100 µM (inactive) in each case. Moreover, the GI50 with SR was > 100 µM (inactive); in the test on NCI-H460, > 100 µM (inactive); in the test on HCT-116, > 100 µM (inactive); in the test with SF-295, > 100 µM (inactive); with SK-OV-3, > 100 µM (inactive); with HCT-15 it was above 100 µM. Besides, the GI50 in the test on NCI-H23, in the test on COLO 205, with ACHN and in the test on SW-620 was > 100 µM (inactive) in each case.

Consider `COc1ccc2occ(CCC(=O)O)c2c1`, for which the GI50 with LOX IMVI, in the test with HCC 2998, with 786-0, in the test with EKVX, in the test with A549 and with NCI-H460 was > 100 µM (inactive) throughout. Moreover, the GI50 in the test on HCT-116 is > 100 µM (inactive); with SF-295, > 100 µM (inactive); in the test on SK-OV-3, > 100 µM (inactive); in the test with HCT-15, above 100 µM; in the test on RPMI-8226, > 100 µM (inactive); with NCI-H23, > 100 µM (inactive). The GI50 with COLO 205, in the test on ACHN and in the test with SW-620 was > 100 µM (inactive) each time.

Consider `Nc1nc2c(c(=O)[nH]1)NC(CO)CN2` (stereo not drawn), for which the GI50 in the test on LOX IMVI is 19.2 µM (inactive); with 786-0, > 100 µM (inactive); with EKVX, > 100 µM (inactive); in the test with A549 it was > 100 µM (inactive); with NCI-H460, > 100 µM (inactive); with HCT-116, 32.7 µM (inactive). The GI50 with SF-295 is 89.5 µM (inactive); in the test with SK-OV-3 it was > 100 µM (inactive); with HCT-15 it was above 100 µM; in the test with RPMI-8226 it was > 100 µM (inactive); in the test with NCI-H23 it was > 100 µM (inactive); with COLO 205 it was > 100 µM (inactive). The GI50 is 79.4 µM (inactive) with ACHN and 37.9 µM (inactive) in the test with SW-620.

Turning to `CC[N+](C)(CC)CC(C)(C)C(=O)/C=C/c1ccc(/C=C/C(=O)C(C)(C)C[N+](C)(CC)CC)cc1`, the GI50 in the test with LOX IMVI, in the test with HCC 2998, in the test with 786-0, with EKVX, with A549 and with SF-268 was > 100 µM (inactive) in each case. In addition, the GI50 is > 100 µM (inactive) with NCI-H460; > 100 µM (inactive) in the test on HCT-116; > 100 µM (inactive) in the test on SF-295; > 100 µM (inactive) with SK-OV-3; above 100 µM in the test on HCT-15; > 100 µM (inactive) with RPMI-8226. The GI50 in the test on NCI-H23, with COLO 205, with ACHN and with SW-620 was > 100 µM (inactive) in each case.

For the compound `CCOC(OCC)c1ccc(/C=C/c2cc(OC)c(OC)c(OC)c2)cc1`, the GI50 with LOX IMVI was 11.1 µM (inactive); in the test on 786-0 it was 23.3 µM (inactive); in the test with EKVX, 33 µM (inactive); in the test with A549, 27.7 µM (inactive); in the test on SF-268, 23.1 µM (inactive); in the test on NCI-H460 it was 19.1 µM (inactive). For the same compound, the GI50 in the test on HCT-116 was 17 µM (inactive); in the test with SF-295 it was 19.2 µM (inactive); in the test on HCT-15, 15.9 µM; in the test on RPMI-8226, 17.1 µM (inactive); in the test on COLO 205, 18.7 µM (inactive); in the test with ACHN it was 37.8 µM (inactive). Moreover, the GI50 in the test with SW-620 is 22.7 µM (inactive).

Turning to `C=C(COC(C)=O)CC(/C=C(\C)CC/C=C(\C)CO)OC(C)=O` (stereo not drawn), the GI50 in the test with LOX IMVI, in the test on HCC 2998, in the test with 786-0, in the test on EKVX, in the test on A549 and in the test on SF-268 was > 100 µM (inactive) throughout. The GI50 was > 100 µM (inactive) in the test on NCI-H460; > 100 µM (inactive) in the test with HCT-116; > 100 µM (inactive) with SF-295; > 100 µM (inactive) in the test on SK-OV-3; above 100 µM in the test on HCT-15; > 10 µM (inactive) in the test with RPMI-8226. Further, the GI50 in the test on NCI-H23, in the test with COLO 205, in the test with ACHN and with SW-620 was > 100 µM (inactive) in each case.

In the case of `CC1Cc2c(N)nc(NN)nc2NC1=O` (stereo not drawn), the GI50 in the test on LOX IMVI, in the test with 786-0, in the test with EKVX, with A549, in the test on NCI-H460 and in the test with HCT-116 was > 100 µM (inactive) throughout. In addition, the GI50 is > 100 µM (inactive) in the test on SF-295; > 100 µM (inactive) in the test on SK-OV-3; above 100 µM in the test with HCT-15; > 100 µM (inactive) with RPMI-8226; > 100 µM (inactive) in the test with NCI-H23; > 100 µM (inactive) with COLO 205. For the same compound, the GI50 in the test with ACHN and with SW-620 was > 100 µM (inactive) in each case.

Values taken from ChEMBL document CHEMBL1201862, “PubChem BioAssay data set” (2004).
